From patent US12221453B2, “Substituted pyrazolo[5′,1′:2,3]pyrimido[5,4-b][1,4]oxazines as TYK2 inhibitors” (TAKEDA PHARMACEUTICAL COMPANY LIMITED, priority 2018, dated 2025)

System: IL-12 induced STAT4 phosphorylation mediated by TYK2/JAK2
Assay: IL-12 induced pSTAT4 in human PBMC
Assay type: cell-based
Settings: 1 hr compound, 1.7 ng/mL IL-12 for 30 minutes
How it was run: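 Thawed human PBMC were pre-incubated with compound for 1 hr at 37 °C (0.1% DMSO), then stimulated with 1.7 ng/mL IL-12 for 30 minutes. Phospho-STAT4 and total STAT4 were measured in cell lysates by MSD.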

Compound	IC50
CNc1cc(-c2cnc3n([C@@H]4COC[C@H]4O)cccc2-3)nc2c(C(=O)N[C@H]3CC[C@@H]3F)cnn12 [Compound I-830]	< 0.1 µM
CNc1cc(-c2cnc3n([C@@H]4COC[C@H]4OC)cccc2-3)nc2c(C(=O)NC3CC[C@@H]3F)cnn12 (some centres unmarked) [Compound I-835]	< 0.1 µM
CNc1cc(-c2cnc3n([C@H]4COC[C@@H]4OC)cccc2-3)nc2c(C(=O)N[C@@H]3CC[C@@H]3F)cnn12 [Compound I-840]	< 0.1 µM
CNc1cc(-c2cnc3n([C@@H]4COC[C@H]4OC)cccc2-3)nc2c(C(=O)NC3CC[C@H]3F)cnn12 (some centres unmarked) [Compound I-841]	< 0.1 µM
CNc1cc(-c2cnc3n([C@H]4COC[C@@H]4O)cccc2-3)nc2c(C(=O)N[C@@H]3CC[C@H]3OC)cnn12 [Compound I-878]	< 0.1 µM
CNc1cc(-c2cnc3n([C@@H]4COC[C@H]4O)cccc2-3)nc2c(C(=O)NC3CCC3(F)F)cnn12 (some centres unmarked) [Compound I-901]	< 0.1 µM
CNc1cc(-c2cnc3n([C@@H]4COC[C@H]4O)cccc2-3)nc2c(C(=O)N[C@H]3CCC3(F)F)cnn12 [Compound I-902]	< 0.1 µM
CNc1cc(-c2cn([C@H]3C[C@@H](COC)C3)c3ncccc23)nc2c(C(=O)N[C@@H]3CC[C@@H]3O)cnn12 [Compound I-914]	< 0.1 µM
CNc1cc(-c2cn([C@@H]3CCOC[C@H]3F)c3ncccc23)nc2c(C(=O)N[C@H]3CC[C@H]3O)cnn12 [Compound I-918]	< 0.1 µM
CNc1cc(-c2cn(CC(=O)N(C)C)c3ncccc23)nc2c(C(=O)N[C@H]3CC[C@@H]3OC)cnn12 [Compound I-921]	< 0.1 µM
CNc1cc(-c2cn(CCOC)c3ncccc23)nc2c(C(=O)N[C@H]3CC[C@@H]3OC)cnn12 [Compound I-923]	< 0.1 µM
CNc1cc(-c2cnc3n([C@@H]4CN(C)C[C@H]4OC)cccc2-3)nc2c(C(=O)NC3CC[C@@H]3OC)cnn12 (some centres unmarked) [Compound I-943]	< 0.1 µM
CNc1cc(-c2cn(CC(=O)N3CCCC3)c3ncccc23)nc2c(C(=O)N[C@H]3CC[C@@H]3OC)cnn12 [Compound I-965]	< 0.1 µM
CNc1cc(-c2cnc3n(CCCN4CCOCC4)cccc2-3)nc2c(C(=O)N[C@H]3CC[C@@H]3OC)cnn12 [Compound I-990]	< 0.1 µM
CNc1cc(-c2cnc3n([C@H]4CCOC4)cccc2-3)nc2c(C(=O)N[C@H]3CC[C@@H]3OC)cnn12 [Compound I-1002]	< 0.1 µM
CNc1cc(-c2cn(C(C)C)c3nnccc23)nc2c(C(=O)N[C@@H]3CC[C@H]3OC)cnn12 [Compound I-1009]	< 0.1 µM
CNc1cc(-c2cnc3n(CC(=O)N4CC5(COC5)C4)cccc2-3)nc2c(C(=O)N[C@H]3CC[C@@H]3OC)cnn12 [Compound I-1012]	> 1 µM
CNc1cc(-c2cn([C@H]3CC(=O)N(C)C3)c3ncccc23)nc2c(C(=O)N[C@H]3CC[C@@H]3OC)cnn12 [Compound I-1024]	< 0.1 µM
CNc1cc(Nc2cccn([C@H]3C[C@H](F)C3)c2=O)nc2c(C(=O)N[C@H]3CC[C@H]3O)cnn12 [I-16, 5-((1-((1r,3S)-3-Fluorocyclobutyl)-2-oxo-1,2-dihydropyridin-3-yl)amino)-N-((1S,2R)-2-hydroxycyclobutyl)-7-(methylamino)pyrazolo[1,5-a]pyrimidine-3-carboxamide]	< 0.1 µM

Further lines, results first:

IC50	Compound
< 0.1 µM	CNc1cc(-c2cnc3n([C@@H]4COC[C@H]4O)cccc2-3)nc2c(C(=O)NC3CC[C@@H]3F)cnn12 (some centres unmarked) [Compound I-827]
< 0.1 µM	CNc1cc(-c2cnc3n([C@H]4COC[C@@H]4O)cccc2-3)nc2c(C(=O)N[C@H]3CC[C@@H]3F)cnn12 [Compound I-828]
< 0.1 µM	CNc1cc(-c2cnc3n([C@H]4COC[C@@H]4OC)cccc2-3)nc2c(C(=O)N[C@H]3CC[C@@H]3F)cnn12 [Compound I-833]
< 0.1 µM	CNc1cc(-c2cnc3n([C@H]4COC[C@@H]4OC)cccc2-3)nc2c(C(=O)NC3CC[C@H]3F)cnn12 (some centres unmarked) [Compound I-838]
< 0.1 µM	CNc1cc(-c2cnc3n([C@H]4COC[C@@H]4OC)cccc2-3)nc2c(C(=O)N[C@H]3CC[C@H]3F)cnn12 [Compound I-839]
< 0.1 µM	CNc1cc(-c2cnc3n([C@@H]4CCOC[C@H]4O)cccc2-3)nc2c(C(=O)N[C@H]3CC[C@@H]3F)cnn12 [Compound I-848]
< 0.1 µM	CNc1cc(-c2cnc3n([C@@H]4COC[C@H]4O)cccc2-3)nc2c(C(=O)N[C@@H]3CC[C@H]3OC)cnn12 [Compound I-876]
< 0.1 µM	CNc1cc(-c2cnc3n([C@H]4COC[C@@H]4OC)cccc2-3)nc2c(C(=O)NC3CC[C@@H]3OC)cnn12 (some centres unmarked) [Compound I-880]
< 0.1 µM	CNc1cc(-c2cnc3n([C@H]4COC[C@@H]4OC)cccc2-3)nc2c(C(=O)N[C@@H]3CC[C@H]3OC)cnn12 [Compound I-881]
< 0.1 µM	CNc1cc(-c2cnc3n([C@@H]4COC[C@H]4OC)cccc2-3)nc2c(C(=O)NC3CC[C@@H]3OC)cnn12 (some centres unmarked) [Compound I-883]
< 0.1 µM	CNc1cc(-c2cnc3n([C@@H]4COC[C@H]4OC)cccc2-3)nc2c(C(=O)N[C@@H]3CC[C@H]3OC)cnn12 [Compound I-884]
< 0.1 µM	CNc1cc(-c2cnc3n([C@@H]4CCOC[C@H]4OC)cccc2-3)nc2c(C(=O)N[C@@H]3CC[C@H]3OC)cnn12 [Compound I-896]
< 0.1 µM	CNc1cc(-c2cnc3n([C@H]4COC[C@@H]4O)cccc2-3)nc2c(C(=O)NC3CCC3(F)F)cnn12 (some centres unmarked) [Compound I-898]
< 0.1 µM	CNc1cc(-c2cn([C@H]3C[C@@H](COC)C3)c3ncccc23)nc2c(C(=O)NC3CC[C@H]3O)cnn12 (some centres unmarked) [Compound I-912]
< 0.1 µM	CNc1cc(-c2cn([C@H]3[C@@H]4COC[C@@H]43)c3ncccc23)nc2c(C(=O)N[C@H]3CC[C@@H]3O)cnn12 [Compound I-915]
< 0.1 µM	CNc1cc(-c2cn([C@H]3C[C@@H](COC)C3)c3ncccc23)nc2c(C(=O)N[C@H]3CC[C@@H]3OC)cnn12 [Compound I-933]
< 0.1 µM	CNc1cc(-c2cnc3n([C@@H]4CN(C)C[C@H]4OC)cccc2-3)nc2c(C(=O)N[C@H]3CC[C@@H]3OC)cnn12 [Compound I-944]
< 0.1 µM	CNc1cc(-c2cnc3n([C@H]4CN(C)C[C@@H]4OC)cccc2-3)nc2c(C(=O)N[C@H]3CC[C@@H]3OC)cnn12 [Compound I-947]
> 1 µM	CNc1cc(-c2cnc3n(CC(=O)N4CCC4)cccc2-3)nc2c(C(=O)N[C@H]3CC[C@@H]3OC)cnn12 [Compound I-977]
< 0.1 µM	CNc1cc(-c2cnc3n(CC(C)(C)O)cccc2-3)nc2c(C(=O)N[C@H]3CC[C@@H]3OC)cnn12 [Compound I-983]
< 0.1 µM	CNc1cc(-c2cn(C(C)C)c3nnccc23)nc2c(C(=O)NC3CC[C@@H]3OC)cnn12 (some centres unmarked) [Compound I-993]
< 0.1 µM	CNc1cc(-c2cnc3n([C@@H]4CCOC4)cccc2-3)nc2c(C(=O)NC3CC[C@@H]3OC)cnn12 (some centres unmarked) [Compound I-995]
< 0.1 µM	CNc1cc(-c2cnc3n([C@@H]4CCOC4)cccc2-3)nc2c(C(=O)N[C@H]3CC[C@@H]3OC)cnn12 [Compound I-1004]
< 0.1 µM	CO[C@H]1CC[C@@H]1NC(=O)c1cnn2c(N)cc(-c3cnc4n([C@H]5COC[C@@H]5OC)cccc3-4)nc12 [Compound I-1006]
< 0.1 µM	CNc1cc(-c2cnc3n(C4CCOCC4)cccc2-3)nc2c(C(=O)N[C@H]3CC[C@@H]3OC)cnn12 [Compound I-1014]
